Test [1] concerns the target T1, mouse FAP (Mus musculus, UniProt P97321).
T1 construct: biotinylated His, Avi tag, mouse FAP (26-761, FAP-M82Q5); His; Avi tag (biotinylated); purchased AcroBiosystems FAP-M82Q5
T1 sequence (P97321 26-761): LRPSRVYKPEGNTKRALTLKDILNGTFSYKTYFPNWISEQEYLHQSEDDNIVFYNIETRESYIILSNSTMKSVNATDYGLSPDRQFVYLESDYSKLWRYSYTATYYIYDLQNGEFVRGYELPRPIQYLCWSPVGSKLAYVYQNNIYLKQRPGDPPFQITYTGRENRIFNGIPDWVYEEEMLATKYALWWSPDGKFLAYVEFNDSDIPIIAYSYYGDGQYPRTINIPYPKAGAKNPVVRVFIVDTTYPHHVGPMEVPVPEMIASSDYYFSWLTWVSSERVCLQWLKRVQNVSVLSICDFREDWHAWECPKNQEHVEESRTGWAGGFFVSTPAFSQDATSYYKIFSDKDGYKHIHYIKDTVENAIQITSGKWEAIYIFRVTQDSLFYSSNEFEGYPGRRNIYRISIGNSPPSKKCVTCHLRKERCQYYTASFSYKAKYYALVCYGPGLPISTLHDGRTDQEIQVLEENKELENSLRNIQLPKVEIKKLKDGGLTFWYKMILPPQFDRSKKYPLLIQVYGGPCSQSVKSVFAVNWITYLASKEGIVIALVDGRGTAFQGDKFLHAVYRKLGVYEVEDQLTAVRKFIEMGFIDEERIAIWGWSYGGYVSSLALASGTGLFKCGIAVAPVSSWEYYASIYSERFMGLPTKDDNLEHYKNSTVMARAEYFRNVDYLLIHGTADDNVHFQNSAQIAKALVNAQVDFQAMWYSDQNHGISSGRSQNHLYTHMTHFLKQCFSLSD
The test can be described thus: Enzymatic FAP competition assay (Z-Gly-Pro-AMC fluorescence), mouse FAP. The format is biochemical. As to conditions: read-out: m. FAP, Enz., IC50. The method, boiled down:
(§1)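 IC50 values come from curve fitting of duplicate % inhibition data on AMC fluorescence (ex 380, em 460 nm) after 4 h at 22-24° C with 50 μM Z-Gly-Pro-AMC. Beforehand, peptides up to 1 μM (14 levels) sat 24 h with 0.01 nM human (26-760) or mouse (26-761) tagged FAP in phosphate buffer pH 7.5, NaCl, Tween20, 1% DMSO.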

Test [2] addresses T1, mouse FAP. The test can be described thus: Surface plasmon resonance (SPR) for peptide affinity, mouse FAP. The format is binding. The method, boiled down:
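KD values come from a 1:1 kinetic fit of single-cycle SPR data: 8 peptide concentrations, 25 °C, 30 μL/min, HEPES-buffered saline pH 7.6 with 2% DMSO. Targets were His/Avi-tagged human (26-760) or mouse (26-761) FAP, amine-coupled to CM5 or held on a CAPture chip.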
A general note: Surface plasmon resonance follows binding to a sensor surface in real time, without labels.

Test [3] concerns the target T2, human FAP (Homo sapiens, UniProt Q12884).
T2 construct: the biotinylated His, Avi tag, human FAP (26-760, FAP-H82Q6); His; Avi tag (biotinylated); purchased AcroBiosystems FAP-H82Q6
T2 sequence (Q12884 26-760): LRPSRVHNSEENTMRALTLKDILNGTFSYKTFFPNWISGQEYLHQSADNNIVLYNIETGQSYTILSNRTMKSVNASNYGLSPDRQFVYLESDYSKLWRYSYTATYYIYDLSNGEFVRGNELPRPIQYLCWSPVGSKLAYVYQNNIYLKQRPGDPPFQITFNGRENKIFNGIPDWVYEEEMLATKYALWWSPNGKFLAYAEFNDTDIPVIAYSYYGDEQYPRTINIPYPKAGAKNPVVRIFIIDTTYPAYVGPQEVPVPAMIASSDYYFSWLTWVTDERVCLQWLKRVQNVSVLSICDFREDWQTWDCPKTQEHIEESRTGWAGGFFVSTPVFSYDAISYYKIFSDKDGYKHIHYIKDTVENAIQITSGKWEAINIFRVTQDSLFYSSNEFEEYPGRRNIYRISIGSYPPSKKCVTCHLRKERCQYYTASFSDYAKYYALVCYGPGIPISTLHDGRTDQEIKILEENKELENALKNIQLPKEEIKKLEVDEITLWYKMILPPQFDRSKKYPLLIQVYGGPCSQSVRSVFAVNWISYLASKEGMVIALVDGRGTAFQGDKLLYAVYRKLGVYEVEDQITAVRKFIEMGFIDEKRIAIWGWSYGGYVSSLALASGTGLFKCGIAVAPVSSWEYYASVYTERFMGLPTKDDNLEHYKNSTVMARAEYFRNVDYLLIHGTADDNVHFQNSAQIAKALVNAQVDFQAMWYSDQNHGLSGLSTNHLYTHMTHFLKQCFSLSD
The test can be described thus: Enzymatic FAP competition assay (Z-Gly-Pro-AMC fluorescence), human FAP. The format is biochemical. Conditions: read-out: h. FAP, Enz., IC50. In short, it runs like this:
as §1

The target of test [4] is T2, human FAP. The test can be described thus: Surface plasmon resonance (SPR) for peptide affinity, human FAP. Conditions: read-out: h. FAP, SPR, KD. The class given is binding. How it is done:
Peptide affinities (KD) were determined by SPR using a Biacore™ 8K device (Cytiva) towards the following proteins: biotinylated His, Avi tag, human FAP (26-760, FAP-H82Q6), biotinylated His, Avi tag, mouse FAP (26-761, FAP-M82Q5), His tag, human DPP4 (34-766, DP4-H82E3), all purchased from AcroBiosystems and His tag, mouse DPP4 (29-760, 954-SE) from R&D Systems. The FAP proteins and their homologous were diluted to a concentration of 2 μg/mL into acetate buffer pH 5.5, then immobilized onto a CM5 sensorchip (Cytiva, BR-1005-30) to reach a response around 2000 R U. The running buffer HBS-EP+pH 7.6 (20× from Teknova CAT. No: H8022) contained 10 mM HEPES pH 7.6, 150 mM NaCl, 3 mM EDTA, 0.05% Tween20 and 2% DMSO. Experiments were carried out at 25° C. using a flow rate of 30 μL/min. Compounds were tested in single cycle kinetic mode at 8 different concentrations. Curve fitting was performed using the Biacore™ 8K evaluation software. The sensorgrams were fitted by applying a 1:1 binding model to calculate kinetic rate constants and equilibrium dissociation constants (KD).
For this assay, the setup had the same conditions (flow rate, running buffer, peptide dilution) as described above for the CM5 method. The oligo CAP reagent obtained in the CAPture Kit (Ref. 28920234) was 1/5 diluted into running buffer and used with a contact time of 300 s at a flow rate of 2 μL/min. The human and mouse FAP constructs described above were used (from AcroBiosystems or produced in house). The FAP proteins were diluted to a concentration of 2 μg/mL into acetate pH 5.5, 0.05% Tween20 and used with a contact time of 600 s at a flow rate of 10 μL/min. The peptides were tested with an association time of 280 s followed by a dissociation time of 3000 s at a flow rate of 30 μL/min. The regeneration was done using the regeneration solution (8 M guanidine-HCl, 1 M NaOH) as obtained with a contact time of 270 s at a flow rate of 10 μL/min. […] The compounds marked with an asterisk were tested against human and mouse DDP4.

As a reminder, the IC50 is the concentration that gives 50% inhibition. What is called Kd is the constant that tells how readily two partners part at equilibrium.

Structures are written as SMILES. Starred links: 1 amine or outer side, 2 acyl side, 3 side chain; linkers in the order of their positions; H or OH if unused. Positions of bridges follow the written chain, without caps; N, C: chain ends. Non-standard residues stand in square brackets, D forms with d. Residues, ends and D or L forms follow the SMILES beside them. Groups on a side chain read outwards from the residue. Chains are numbered I, II in the order given. *: point of attachment. X1 = O=C(O)CN1CCN(CC(=O)O)CCN(CC(=O)NC(CC(=O)NCCOCCOCC(=O)[*:1])CC(=O)NCCOCCOCC(=O)[*:2])CCN(CC(=O)O)CC1; Nicotinoyl(6-NMe3+) = C[N+](C)(C)c1ccc(C(=O)*)cn1; Phe(4-CH2NH2) = NCc1ccc(C[C@H](N)C(=O)O)cc1; Piperazinyl(4-CH2COOH) = O=C(O)CN1CCN(*)CC1; Nicotinoyl(6-F) = O=C(c1ccc(F)nc1)*; NMeF = CN[C@@H](Cc1ccccc1)C(=O)O; Aoc(2) = CCCCCC[C@H](N)C(=O)O; hSer = N[C@@H](CCO)C(=O)O; AEEA = NCCOCCOCC(=O)O; CO = O=C([*:1])[*:2]; Propyl = CCC*

Regarding `CCCOCC[C@@H]1NC(=O)[C@H](Cc2ccc(CNC(=O)COCCOCCNC(=O)c3ccc(F)nc3)cc2)NC(=O)[C@H](Cc2ccccc2)N(C)C(=O)CNC(=O)CNC(=O)[C@H]2CCCN2C(=O)[C@H](CC(=O)O)NC(=O)[C@H](CCCCNC(=O)N2CCN(CC(=O)O)CC2)NC(=O)CNC(=O)[C@H](Cc2c[nH]c3ccccc23)NC1=O` [Example C56, Gly-Gly-NMePhe-F(4amPEG2NHCOPy3(4F))-hS(Pr)-Trp-Gly-K(Copipzaa)-Asp-D-Pro] (cyclo(D[dP]GG[NMeF][Phe(4-CH2NH2)]([AEEA-Nicotinoyl(6-F)])[hSer](Propyl)WGK([CO-Piperazinyl(4-CH2COOH)]))), the IC50 on mouse FAP [1] amounted to 0.037 nM; on human FAP [3], 0.009 nM. The Kd on mouse FAP [2] is less than 0.023 nM; on human FAP [4], less than 0.007 nM.
The corresponding values for `CCCCCC[C@@H]1NC(=O)[C@H](Cc2ccc(CNC(=O)COCCOCCNC(=O)c3ccc([N+](C)(C)C)nc3)cc2)NC(=O)[C@H](Cc2ccccc2)N(C)C(=O)CNC(=O)CNC(=O)[C@H]2CCCN2C(=O)[C@H](CC(=O)O)NC(=O)[C@H](CCCCNC(=O)N2CCN(CC(=O)O)CC2)NC(=O)CNC(=O)[C@H](Cc2c[nH]c3ccccc23)NC1=O` [Example C57, Gly-Gly-NMePhe-F(4amPEG2NHCOPy3(4(NMe3)))-Aoc-Trp-Gly-K(COpipzaa)-Asp-D-Pro] (cyclo([Aoc(2)]WGK([CO-Piperazinyl(4-CH2COOH)])D[dP]GG[NMeF][Phe(4-CH2NH2)]([AEEA-Nicotinoyl(6-NMe3+)]))) are 0.016 nM, 0.006 nM, less than 0.014 nM and less than 0.013 nM.
The corresponding values for `CCCOCC[C@@H]1NC(=O)[C@H](Cc2ccc(CNC(=O)COCCOCCNC(=O)c3ccc([N+](C)(C)C)nc3)cc2)NC(=O)[C@H](Cc2ccccc2)N(C)C(=O)CNC(=O)CNC(=O)[C@H]2CCCN2C(=O)[C@H](CC(=O)O)NC(=O)[C@H](CCCCNC(=O)N2CCN(CC(=O)O)CC2)NC(=O)CNC(=O)[C@H](Cc2c[nH]c3ccccc23)NC1=O` [Example C58] (cyclo(D[dP]GG[NMeF][Phe(4-CH2NH2)]([AEEA-Nicotinoyl(6-NMe3+)])[hSer](Propyl)WGK([CO-Piperazinyl(4-CH2COOH)]))) are 0.017 nM, 0.006 nM, less than 0.017 nM and less than 0.007 nM.
Turning to `CCCCCC[C@@H]1NC(=O)[C@H](Cc2ccc(CNC(=O)COCCOCCNC(=O)CC(CC(=O)NCCOCCOCC(=O)NCc3ccc(C[C@@H]4NC(=O)[C@H](Cc5ccccc5)N(C)C(=O)CNC(=O)CNC(=O)[C@H]5CCCN5C(=O)[C@H](CC(=O)O)NC(=O)[C@H](CCCCNC(=O)N5CCN(CC(=O)O)CC5)NC(=O)CNC(=O)[C@H](Cc5c[nH]c6ccccc56)NC(=O)[C@H](CCCCCC)NC4=O)cc3)NC(=O)CN3CCN(CC(=O)O)CCN(CC(=O)O)CCN(CC(=O)O)CC3)cc2)NC(=O)[C@H](Cc2ccccc2)N(C)C(=O)CNC(=O)CNC(=O)[C@H]2CCCN2C(=O)[C@H](CC(=O)O)NC(=O)[C@H](CCCCNC(=O)N2CCN(CC(=O)O)CC2)NC(=O)CNC(=O)[C@H](Cc2c[nH]c3ccccc23)NC1=O` [Example M1] (I: cyclo(GG[NMeF][Phe(4-CH2NH2)][Aoc(2)]WGK([CO-Piperazinyl(4-CH2COOH)])D[dP]) / II: cyclo(GG[NMeF][Phe(4-CH2NH2)][Aoc(2)]WGK([CO-Piperazinyl(4-CH2COOH)])D[dP]); linker I:4-II:4 via X1), the IC50 at mouse FAP [1] is 0.134 nM; on human FAP [3], 0.039 nM. Moreover, the results for the Kd on mouse FAP [2] and on human FAP [4] were less than 0.057 nM and less than 0.03 nM, respectively.
On the same counts, the results for `CCCOCC[C@@H]1NC(=O)[C@H](Cc2ccc(CNC(=O)COCCOCCNC(=O)CC(CC(=O)NCCOCCOCC(=O)NCc3ccc(C[C@@H]4NC(=O)[C@H](Cc5ccccc5)N(C)C(=O)CNC(=O)CNC(=O)[C@H]5CCCN5C(=O)[C@H](CC(=O)O)NC(=O)[C@H](CCCCNC(=O)N5CCN(CC(=O)O)CC5)NC(=O)CNC(=O)[C@H](Cc5c[nH]c6ccccc56)NC(=O)[C@H](CCOCCC)NC4=O)cc3)NC(=O)CN3CCN(CC(=O)O)CCN(CC(=O)O)CCN(CC(=O)O)CC3)cc2)NC(=O)[C@H](Cc2ccccc2)N(C)C(=O)CNC(=O)CNC(=O)[C@H]2CCCN2C(=O)[C@H](CC(=O)O)NC(=O)[C@H](CCCCNC(=O)N2CCN(CC(=O)O)CC2)NC(=O)CNC(=O)[C@H](Cc2c[nH]c3ccccc23)NC1=O` [Example M3] (I: cyclo(GG[NMeF][Phe(4-CH2NH2)][hSer](Propyl)WGK([CO-Piperazinyl(4-CH2COOH)])D[dP]) / II: cyclo(GG[NMeF][Phe(4-CH2NH2)][hSer](Propyl)WGK([CO-Piperazinyl(4-CH2COOH)])D[dP]); linker I:4-II:4 via X1) are 0.144 nM, 0.035 nM, less than 0.078 nM and less than 0.043 nM.

For the origin of these results see patent US20250090699A1, “FAP TARGETING CYCLIC PEPTIDES AND CONJUGATES THEREOF” (Novartis AG, priority 2023, published 2025).
